Test results reported in patent publication US9078845B2, “Anti-microbial agent” (priority 2005, dated 2015).

Tests used:
[1] = system: Salmonella cholerae-suis ATCC 10708; test: Minimum Inhibitory Concentration Test (broth dilution, turbidity); format: cell-based; details: 48 hours at 37° C.
[2] = system: Pseudomonas aeruginosa; test: suspension test; format: cell-based; details: after 30 mins
Method: The compositions were tested for antimicrobial activity using the suspension test in Example 3 outlined at room temperature against the following organisms:
The anti-microbial activity of a-linolenic acid and terpinen-4-ol separately and in combination were tested using the suspension test as outlined in Example 3 above.

[3] = system: Staphylococcus aureus ATCC 6538; details: 48 hours at 37° C.
[4] = system: Methicillin Resistant Staphylococcus Wild Strain; details: 48 hours at 37° C.
[5] = system: Escherichia coli ATCC 8739; details: 48 hours at 37° C.
[6] = system: Streptococcus pyogenes University of Melbourne MDU; details: 48 hours at 37° C.
[7] = system: Morazella Catarrhalis; details: 48 hours at 37° C.
[8] = dilution 1:100 in Tryptone Soya broth
[9] = dilution 1:200 in Tryptone Soya broth
[10] = dilution 1:400 in Tryptone Soya broth
[11] = dilution 1:800 in Tryptone Soya broth
[12] = dilution 1:1600 in Tryptone Soya broth
[13] = dilution 1:3200 in Tryptone Soya broth
[14] = dilution 1:6400 in Tryptone Soya broth
[15] = dilution 1:12800 in Tryptone Soya broth
[16] = dilution 1:25600 in Tryptone Soya broth
[17] = dilution 1:51200 in Tryptone Soya broth
[18] = dilution 1:102400 in Tryptone Soya broth

CC/C=C\C/C=C\C/C=C\CCCCCCCC(=O)O [α-linolenic acid]
Growth (turbidity) at Dilution 1:100 [1, 8]: −
Growth (turbidity) at Dilution 1:200 [1, 9]: −
Growth (turbidity) at Dilution 1:400 [1, 10]: +
Growth (turbidity) at Dilution 1:800 [1, 11]: +
Growth (turbidity) at Dilution 1:1600 [1, 12]: +
Growth (turbidity) at Dilution 1:3200 [1, 13]: +
Growth (turbidity) at Dilution 1:6400 [1, 14]: +
Growth (turbidity) at Dilution 1:12800 [1, 15]: +
Growth (turbidity) at Dilution 1:25600 [1, 16]: +
Growth (turbidity) at Dilution 1:51200 [1, 17]: +
Growth (turbidity) at Dilution 1:102400 [1, 18]: +
reduction in the survival of P. aeruginosa [2]: 1 log10
Growth (turbidity) at Dilution 1:100 [3, 8]: −
Growth (turbidity) at Dilution 1:200 [3, 9]: −
Growth (turbidity) at Dilution 1:400 [3, 10]: −
Growth (turbidity) at Dilution 1:800 [3, 11]: −
Growth (turbidity) at Dilution 1:1600 [3, 12]: −
Growth (turbidity) at Dilution 1:3200 [3, 13]: −
Growth (turbidity) at Dilution 1:6400 [3, 14]: −
Growth (turbidity) at Dilution 1:12800 [3, 15]: −
Growth (turbidity) at Dilution 1:25600 [3, 16]: −
Growth (turbidity) at Dilution 1:102400 [3, 18]: +
Growth (turbidity) at Dilution 1:100 [4, 8]: −
Growth (turbidity) at Dilution 1:200 [4, 9]: −
Growth (turbidity) at Dilution 1:400 [4, 10]: −
Growth (turbidity) at Dilution 1:800 [4, 11]: −
Growth (turbidity) at Dilution 1:1600 [4, 12]: −
Growth (turbidity) at Dilution 1:3200 [4, 13]: −
Growth (turbidity) at Dilution 1:6400 [4, 14]: −
Growth (turbidity) at Dilution 1:12800 [4, 15]: −
Growth (turbidity) at Dilution 1:25600 [4, 16]: −
Growth (turbidity) at Dilution 1:51200 [4, 17]: −
Growth (turbidity) at Dilution 1:102400 [4, 18]: +
Growth (turbidity) at Dilution 1:100 [5, 8]: +
Growth (turbidity) at Dilution 1:200 [5, 9]: +
Growth (turbidity) at Dilution 1:400 [5, 10]: +
Growth (turbidity) at Dilution 1:800 [5, 11]: +
Growth (turbidity) at Dilution 1:1600 [5, 12]: +
Growth (turbidity) at Dilution 1:3200 [5, 13]: +
Growth (turbidity) at Dilution 1:6400 [5, 14]: +
Growth (turbidity) at Dilution 1:12800 [5, 15]: +
Growth (turbidity) at Dilution 1:25600 [5, 16]: +
Growth (turbidity) at Dilution 1:51200 [5, 17]: +
Growth (turbidity) at Dilution 1:102400 [5, 18]: +
Growth (turbidity) at Dilution 1:100 [6, 8]: −
Growth (turbidity) at Dilution 1:200 [6, 9]: −
Growth (turbidity) at Dilution 1:400 [6, 10]: −
Growth (turbidity) at Dilution 1:800 [6, 11]: −
Growth (turbidity) at Dilution 1:1600 [6, 12]: −
Growth (turbidity) at Dilution 1:3200 [6, 13]: −
Growth (turbidity) at Dilution 1:6400 [6, 14]: −
Growth (turbidity) at Dilution 1:12800 [6, 15]: −
Growth (turbidity) at Dilution 1:51200 [6, 17]: +
Growth (turbidity) at Dilution 1:102400 [6, 18]: +
Growth (turbidity) at Dilution 1:100 [7, 8]: −
Growth (turbidity) at Dilution 1:200 [7, 9]: −
Growth (turbidity) at Dilution 1:400 [7, 10]: −
Growth (turbidity) at Dilution 1:800 [7, 11]: −
Growth (turbidity) at Dilution 1:1600 [7, 12]: −
Growth (turbidity) at Dilution 1:3200 [7, 13]: −
Growth (turbidity) at Dilution 1:6400 [7, 14]: −
Growth (turbidity) at Dilution 1:12800 [7, 15]: +
Growth (turbidity) at Dilution 1:25600 [7, 16]: +
Growth (turbidity) at Dilution 1:51200 [7, 17]: +
Growth (turbidity) at Dilution 1:102400 [7, 18]: +

CC1=CCC(O)(C(C)C)CC1 (stereo not drawn) [terpinen-4-ol]
reduction in the survival of P. aeruginosa [2]: 1 log10
